We go through 3 compounds from patent US20210220420A1, “BOTANICAL COMPOSITIONS OF SALVIA O[…] ACTIVITY IN EXTENDING CHR[…] AND METHODS OF USE” (priority 2016, published 2021).

Test [1] relates to C. elegans strain with a pharyngeal GFP tag and a bus-5 mutation. As to the kind of experiment: C. elegans chronological lifespan assay versus small molecule AChE inhibitors (Example 4). The test is classed as in vivo. The conditions noted are these: 10 mg/ml; for maximum improvement in survival: at day 13 (N350), day 12 (N355, N314), day 9 (N354); for improvement in mean life span: vs control. The protocol: The samples were prepared as a DMSO-based 10 mg/ml stock, aliquoted when necessary and a serial dilution of the stock solution was performed for N92-4. The stock solutions were stored at −20° C.
The assay was carried out using the standard C. elegans strain with a pharyngeal GFP tag and a bus-5 mutation. The GFP tag enables images of the worms to be captured using fluorescence microscopy. […] The worms were raised in the presence of a treatment or control on 12 well NGM agar plates, and were maintained at 20° C. with sufficient food (Escherichia coli strain OP-50).
A proprietary data analysis software package was used to analyse the effects of different active ingredients on aspects of worm ageing. The package was developed using a MATLAB image analysis algorithm which was adapted to recognise and count worms based on their fluorescence intensity above background fluorescence. A living worm is distinguished from a dead worm based on the degree of movement between two consecutive images, which enables the number of living and cumulative number of dead worms to be tracked throughout the experiment. […] A selection of images was manually checked to ensure the software had correctly identified the number of worms.
The statistical analysis output of OASIS provides Log-Rank and Fishers Exact Test results. The Log-Rank result is a non-parametric test which compares two survival functions for the overall lifespan assay, providing a reliable p-value summarising the whole experiment. The Fishers Exact Test calculates the significance of survival function comparisons at multiple specific time points throughout the experiment, rather than for the overall lifespan

Test [2] deals with Yeast. The conditions noted are these: cited from earlier work.

In the case of `COc1ccc2c3c1O[C@H]1C[C@@H](O)C=C[C@@]31CCN(C)C2` [N354, Galantamine], in test [1], the Restricted mean lifespan came to 14.05 days, the “maximum improvement in lifespan” value is on record as “+15.9%”, the “maximum improvement in survival” value is given as “up to +11.6%” and the “improvement in mean life span” value is “+8%”.
For `CCN(C)C(=O)Oc1cccc([C@H](C)N(C)C)c1` [N355, Rivastigmine], in that order: 14.04 days, “+15.6%”, “up to +13.3%” and “+7.9%”.
On to `Oc1ccc(C=Cc2cc(O)cc(O)c2)cc1` [Resveratrol], for which, in test [2], the effect on lifespan entry is listed as “able to increase lifespan in yeast”.
